Target: DNA topoisomerase 2-alpha (Homo sapiens) (UniProt P11388)
Experiment: Inhibition of human topoisomerase 2alpha-mediated supercoiled pBR322 DNA relaxation at 5 ug/ml by agarose gel electrophoresis

Chain of DNA topoisomerase 2-alpha (Homo sapiens) (P11388 whole entry): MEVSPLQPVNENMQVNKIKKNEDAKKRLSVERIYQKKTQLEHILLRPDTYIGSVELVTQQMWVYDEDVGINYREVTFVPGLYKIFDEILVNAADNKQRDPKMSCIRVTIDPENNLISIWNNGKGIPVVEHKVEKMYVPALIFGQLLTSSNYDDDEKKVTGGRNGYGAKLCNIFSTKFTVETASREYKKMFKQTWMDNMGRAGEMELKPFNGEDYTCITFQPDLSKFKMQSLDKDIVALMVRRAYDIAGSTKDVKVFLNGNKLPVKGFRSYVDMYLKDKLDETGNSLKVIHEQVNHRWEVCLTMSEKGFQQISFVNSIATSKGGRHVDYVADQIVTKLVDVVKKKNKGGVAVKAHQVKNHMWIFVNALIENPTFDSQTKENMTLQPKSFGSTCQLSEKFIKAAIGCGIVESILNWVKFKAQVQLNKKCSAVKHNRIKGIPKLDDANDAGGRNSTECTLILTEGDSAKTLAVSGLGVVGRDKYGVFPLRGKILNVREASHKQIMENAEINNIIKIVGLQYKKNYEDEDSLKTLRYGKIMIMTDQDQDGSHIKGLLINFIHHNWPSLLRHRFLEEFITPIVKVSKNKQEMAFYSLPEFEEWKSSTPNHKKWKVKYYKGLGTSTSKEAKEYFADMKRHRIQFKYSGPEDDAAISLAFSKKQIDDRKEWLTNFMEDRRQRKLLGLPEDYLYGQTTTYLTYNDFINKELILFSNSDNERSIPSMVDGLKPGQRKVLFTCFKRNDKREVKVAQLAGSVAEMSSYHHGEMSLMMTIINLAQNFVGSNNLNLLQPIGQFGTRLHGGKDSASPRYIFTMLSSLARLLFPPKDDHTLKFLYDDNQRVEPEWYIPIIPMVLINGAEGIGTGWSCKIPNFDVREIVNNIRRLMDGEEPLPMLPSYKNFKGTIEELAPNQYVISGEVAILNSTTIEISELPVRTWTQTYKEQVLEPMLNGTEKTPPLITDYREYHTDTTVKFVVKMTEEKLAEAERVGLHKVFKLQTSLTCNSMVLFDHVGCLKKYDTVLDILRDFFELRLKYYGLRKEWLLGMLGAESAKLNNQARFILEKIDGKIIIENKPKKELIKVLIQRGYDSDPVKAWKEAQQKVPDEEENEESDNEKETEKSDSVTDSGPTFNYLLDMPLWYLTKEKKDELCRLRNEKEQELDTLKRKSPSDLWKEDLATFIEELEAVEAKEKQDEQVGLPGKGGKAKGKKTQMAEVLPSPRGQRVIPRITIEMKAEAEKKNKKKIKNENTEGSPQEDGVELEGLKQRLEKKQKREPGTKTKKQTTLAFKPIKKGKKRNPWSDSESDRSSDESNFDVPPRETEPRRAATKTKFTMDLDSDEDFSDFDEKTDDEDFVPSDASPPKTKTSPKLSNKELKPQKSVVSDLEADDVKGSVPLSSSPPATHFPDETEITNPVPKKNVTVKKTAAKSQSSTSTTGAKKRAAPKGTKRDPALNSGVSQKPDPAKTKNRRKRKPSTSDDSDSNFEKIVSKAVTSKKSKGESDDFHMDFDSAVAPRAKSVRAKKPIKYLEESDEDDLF

inhibition: 90%
SMILES: NC1=C(Br)C2=NCCc3c[nH]c(c32)C1=O

From ChEMBL document CHEMBL1146408, “Makaluvamine N: a new pyrroloiminoquinone from Zyzzya fuliginosa” (1997)
